Columns and labels:
[1] = system: Human RSV-A (“Long” strain); assay: RSV-A assay: CPE in Hep-2 cells, ATPlite readout; type: cell-based; conditions: human respiratory syncytial virus, 120 h, MOI 0.1, 5-day incubation
Excerpt: Hep-2 cells, (originally derived from tumors grown in irradiated-cortisonised weanling rats that had been injected with epidermoid carcinoma tissue from a person's larynx, but later found to be indistinguishable from HeLa cells by PCR DNA analysis), were used for the culturing of genotype A, “Long” strain RSV. Flasks were inoculated with RSV and viral stocks were collected once cytopathic effect (CPE) was greater than 90%. Viral stocks in 25% sucrose media were snap frozen using liquid nitrogen to increase viral stability. Viral stock titers were quantified by tissue culture infectious dose 50% (TCID50) using 8,000 cells per well and 3-fold viral dilutions across a 96-well plate, cultured for 4 days. Viral stock titers were also quantified by a plaque forming unit assay, as described elsewhere.
Following extensive parameter testing, the final assay is run as follows: Hep-2 cells are seeded into the inner 60 wells of a 96-well plate at 8,000 cells per well in a volume of 50 μL using Growth Media (DMEM without phenol red, 1% L-Glut, 1% Penn/Strep, 1% nonessential amino acids, 10% heat-inactivated FBS). 2-fold serial dilutions of control and test compounds are added to the wells in duplicate in a total volume of 25 μL. Viral stock is then added to the wells at a multiplicity of infection (MOI) of 0.1 in a volume of 25 μL, bringing the total volume of each well to 100 μL. The MOI is calculated using the PFU/mL, or TCID50 if unavailable. Each 96-well plate has a control column of 6 wells with cells and virus but no compound (negative control, max CPE), a column with cells but no compound or virus (positive control, minimum CPE), and a column with no cells or virus or compound (background plate/reagent control). The control wells with cells but no virus are given an additional 25 μL of growth media containing an equal quantity of sucrose as those wells receiving the viral stock in order to keep consistent in media and volume conditions. The outer wells of the plate are filled with 125 μL of moat media (DMEM, 100 Penn/Strep) to act as a thermal and evaporative moat around the test wells. Following a 5-day incubation period, the plates are read using ATPlite (50 uL added per well), which quantifies the amount of ATP (a measure of cell health) present in each well. Assay plates are read using the Envision luminometer. […] EC50 ranges are as follows: A<0.01 μM; B 0.01-0.05 μM; C>0.05 μM.

HMPV A2 TN/94-49 = assay: HMPV antiviral assay: LLC-MK2 cells, ATP-Lite readout; type: cell-based; conditions: LLC-MK2, 168 h, MOI 0.005, 7 days incubation
Procedure, shortened: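 LLC-MK2 cells (5,000/well) were infected in suspension with HMPV A2 TN/94-49 at MOI 0.005 in serum-free OptiMEM with 2 μg/mL final TPCK-trypsin, then incubated for 7 days at 37 °C. Compounds were tested in duplicate from 2 μM in 10-point 2.5-fold dilutions. ATP-Lite luminescence, normalised to virus-only and cells-only controls as % cell health, gave EC50 by four-parameter fit.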

Compound	EC50 [1] [nM]	EC50 (HMPV A2 TN/94-49) [nM]
COc1cc(C(=O)NC[C@](O)(c2cc(C3(O)CC3)c(F)c(-c3ccc(F)cc3)n2)C2CC2)cc2cn(C3CC3)nc12 (single isomer, unassigned) [Example 50]	< 10	> 1000
COc1cc(C(=O)NC[C@](O)(c2cc(C3(C(N)=O)CC3)cc(-c3ccc(F)c(Cl)c3F)n2)C2CC2)cc2cn(C3CC3)nc12 (single isomer, unassigned) [Example 26]	< 10	> 1000
[2H]C([2H])([2H])C(O)(c1cc([C@@](O)(CNC(=O)c2cc(OC)c3nn(C4CC4)cc3c2)c2ccccc2)nc(-c2cc(Cl)c(F)cc2F)c1F)C([2H])([2H])[2H] [Example 183]	< 10	< 1000
COc1cc(C(=O)NC[C@](O)(c2cc(C3(C(N)=O)CC3)c(F)c(-c3ccc(F)c(Cl)c3F)n2)C2CC2)cc2cn(C3CC3)nc12 (single isomer, unassigned) [Example 20]	10 to 50	> 1000
COc1cc(C(=O)NC[C@](O)(c2cc(C3(C(N)=O)CC3)cc(-c3cc(Cl)c(F)cc3F)n2)C2CC2)cc2cn(C(F)F)nc12 (single isomer, unassigned) [Example 25]	10 to 50	> 1000
NC(=O)C1(c2cc([C@@](O)(CNC(=O)c3cc(OC4CC4)c4nn(C5(F)CC5)cc4c3)C3CC3)nc(-c3cc(Cl)c(F)cc3F)c2F)CC1 (single isomer, unassigned) [Example 16]	10 to 50	–
COc1cc(C(=O)NC[C@](O)(c2cc(C(F)(F)C(N)=O)c(F)c(-c3cc(Cl)c(F)cc3F)n2)C2CC2)cc2cn(C3(F)CC3)nc12 (single isomer, unassigned) [Example 39]	< 10	–
Cc1nc2c(OC3CC3)cc(C(=O)NC[C@](O)(c3cc(C4(O)CC4)c(F)c(-c4ccc(F)cc4)n3)C3CC3)cc2cc1Cl (single isomer, unassigned) [Example 49]	< 10	> 1000
COc1cc(C(=O)NC[C@](O)(c2cc(C(C)(C)O)c(F)c(-c3ccc(F)cc3)n2)C2CC2)cc2cn(C3CC3)nc12 [Example 1]	< 10	< 1000
COc1cc(C(=O)NC[C@](O)(c2cc(N3CC[C@@H](O)C3)cc(-c3cc(Cl)c(F)cc3F)n2)C2CC2)cc2cn(C3CC3)nc12 [Example 200]	> 50	> 1000
COc1cc(C(=O)NC[C@](O)(c2cc(C3(C(N)=O)CC3)c(F)c(-c3ccc(F)c(Cl)c3F)n2)C2CC2)cc2cn(C(F)F)nc12 (single isomer, unassigned) [Example 21]	< 10	> 1000
COc1cc(C(=O)NC[C@](O)(c2cc(C3(C(N)=O)CC3)c(F)c(-c3ccc(F)c(Cl)c3F)n2)C2CC2)cc2cc(Cl)c(C)nc12 (single isomer, unassigned) [Example 23]	10 to 50	> 1000
COc1cc(C(=O)NC[C@](O)(c2cc(C3(C(N)=O)CC3)cc(-c3ccc(F)c(Cl)c3F)n2)C2CC2)cc2cn(C(F)F)nc12 (single isomer, unassigned) [Example 27]	< 10	–
COc1cc(C(=O)NC[C@@](O)(c2ccccc2)c2cc(C(C)(C)O)c(F)c(-c3ccc4c(c3Cl)OC(F)(F)O4)n2)cc2cn(C3CC3)nc12 [Example 74]	< 10	< 1000
COc1cc(C(=O)NC[C@](O)(c2cc(C(C)(C)O)c(F)c(-c3ccc(F)cc3)n2)C2CC2)cc2cc(C3CC3)nn12 (single isomer, unassigned) [Example 8]	< 10	< 1000
COc1cc(C(=O)NC[C@](O)(c2cc(C(C)(C)C(N)=O)c(F)c(-c3ccc(F)cc3)n2)C2CC2)cc2cn(C3CC3)nc12 (single isomer, unassigned) [Example 43]	< 10	–
NC(=O)C1(c2cc([C@@](O)(CNC(=O)c3cc(OC4CC4)c4nn(C5CC5)cc4c3)C3CC3)nc(-c3cc(Cl)c(F)cc3F)c2F)CC1 (single isomer, unassigned) [Example 14]	10 to 50	–
COc1cc(C(=O)NC[C@](O)(c2cc(C3(C(N)=O)CC3)c(F)c(-c3cc(Cl)c(F)cc3F)n2)C2CC2)cc2cn(C3CC3)nc12 (single isomer, unassigned) [Example 11]	10 to 50	–
COc1cc(C(=O)NC[C@](O)(c2cc(C3(C(N)=O)CC3)c(F)c(-c3cc(Cl)c(F)cc3F)n2)C2CC2)cc2cc(Cl)c(C)nc12 (single isomer, unassigned) [Example 19]	< 10	> 1000

Compound	EC50 [1] [nM]	EC50 (HMPV A2 TN/94-49) [nM]
Cc1nc2c(OC(F)F)cc(C(=O)NC[C@](O)(c3cc(C4(O)CC4)c(F)c(-c4ccc(F)cc4)n3)C3CC3)cc2cc1Br (single isomer, unassigned) [Example 51]	10 to 50	> 1000
COc1cc(C(=O)NC[C@](O)(c2cc(C3(C(N)=O)CC3)c(F)c(-c3cc(Cl)c(F)cc3F)n2)C2CC2)cc2cn(C3(F)CC3)nc12 (single isomer, unassigned) [Example 13]	10 to 50	–
COc1cc(C(=O)NC[C@](O)(c2cc(C(C)(C)O)c(F)c(-c3cc(Cl)c(F)cc3F)n2)C2CC2)cc2cc(Cl)c(C)nc12 [Example 57]	< 10	< 1000
CC(C)(O)c1cc([C@@](O)(CNC(=O)c2cc(OC3CC3)c3nn(C4(F)CC4)cc3c2)C2CC2)nc(-c2ccc(F)cc2)c1F [Example 5]	< 10	< 1000
N#CC1(c2cc([C@@](O)(CNC(=O)c3cc(OC4CC4)c4nn(C5(F)CC5)cc4c3)C3CC3)nc(-c3cc(Cl)c(F)cc3F)c2F)CC1 (single isomer, unassigned) [Example 17]	10 to 50	–
COc1cc(C(=O)NC[C@](O)(c2cc(C3(C(N)=O)CC3)c(F)c(-c3cc(Cl)c(F)cc3F)n2)C2CC2)cc2cn(C(F)F)nc12 (single isomer, unassigned) [Example 9]	10 to 50	> 1000
COc1cc(C(=O)NC[C@@](O)(c2ccccc2)c2cc(C(C)(C)O)c(F)c(-c3cc(Cl)c(F)cc3F)n2)cc2cc(Cl)c(C)nc12 [Example 65]	10 to 50	< 1000
Cc1nc2c(OC3CC3)cc(C(=O)NC[C@](O)(c3cc(C(C)(C)C(N)=O)c(F)c(-c4ccc(F)cc4)n3)C3CC3)cc2cc1Cl (single isomer, unassigned) [Example 44]	< 10	–
COc1cc(C(=O)NC[C@](O)(c2cc(C(C)(C)O)c(F)c(-c3ccc(F)cc3)n2)C2CC2)cc2cn(C3(F)CC3)nc12 [Example 4]	< 10	< 1000
COc1cc(C(=O)NC[C@](O)(c2cc(N3CC[C@H](O)C3)cc(-c3cc(Cl)c(F)cc3F)n2)C2CC2)cc2cn(C3CC3)nc12 [Example 199]	> 50	> 1000
COc1cc(C(=O)NC[C@@](O)(c2ccccc2)c2cc(C(C)(C)O)c(Cl)c(-c3ccc4c(c3Cl)OC(F)(F)O4)n2)cc2cn(C3CC3)nc12 [Example 136]	< 10	< 1000
COc1cc(C(=O)NC[C@](O)(c2cc(C(F)(F)C(N)=O)c(F)c(-c3cc(Cl)c(F)cc3F)n2)C2CC2)cc2cn(C(F)F)nc12 (single isomer, unassigned) [Example 41]	10 to 50	–
Cc1nc2c(OC(F)F)cc(C(=O)NC[C@](O)(c3cc(C(C)(C)C(N)=O)c(F)c(-c4ccc(F)cc4)n3)C3CC3)cc2cc1Br (single isomer, unassigned) [Example 45]	10 to 50	–
COc1cc(C(=O)NC[C@](O)(c2cc(C(F)(F)C(N)=O)c(F)c(-c3ccc(F)c(Cl)c3F)n2)C2CC2)cc2cn(C3(F)CC3)nc12 (single isomer, unassigned) [Example 33]	< 10	–
Cc1nc2c(OC(F)F)cc(C(=O)NC[C@](O)(c3cc(C(O)(C(F)(F)F)C(F)(F)F)c(F)c(-c4ccc(F)cc4)n3)C3CC3)cc2cc1Br (single isomer, unassigned) [Example 46]	10 to 50	–
COc1cc(C(=O)NC[C@](O)(c2cc(C(F)(F)C(N)=O)c(F)c(-c3ccc(F)c(Cl)c3F)n2)C2CC2)ccc1OC[C@@H](C)O (single isomer, unassigned) [Example 37]	> 50	–
COc1cc(C(=O)NC[C@](O)(c2cc(C(F)(F)C(N)=O)c(F)c(-c3cc(Cl)c(F)cc3F)n2)C2CC2)cc2cc(Cl)c(C)nc12 (single isomer, unassigned) [Example 42]	> 50	–
N#CC1(c2cc([C@@](O)(CNC(=O)c3cc(OC4CC4)c4nn(C5CC5)cc4c3)C3CC3)nc(-c3cc(Cl)c(F)cc3F)c2F)CC1 (single isomer, unassigned) [Example 15]	10 to 50	–
